Reference: patent US8193378B2, “2H-chromene compound and derivative thereof” (Astellas Pharma Inc., priority 2008, dated 2012)
Where two headings read alike, the source gives them in different places.

Legend:
human S1P1 [1] = target: T1, human S1P1 (Homo sapiens, UniProt P21453); test: GTP[γ-35S] binding assay using membrane of human S1P1 expressing cell (Test Example 1, Method 1); format: biochemical; settings: method 1, GTP[γ-35S] binding, membrane of human S1P1 expressing CHO cell (values without *); read-out: A: EC50, in vitro S1P1 agonist action
T1 construct: expressed in transfected cells; membrane fraction used
T1 sequence (P21453 whole entry): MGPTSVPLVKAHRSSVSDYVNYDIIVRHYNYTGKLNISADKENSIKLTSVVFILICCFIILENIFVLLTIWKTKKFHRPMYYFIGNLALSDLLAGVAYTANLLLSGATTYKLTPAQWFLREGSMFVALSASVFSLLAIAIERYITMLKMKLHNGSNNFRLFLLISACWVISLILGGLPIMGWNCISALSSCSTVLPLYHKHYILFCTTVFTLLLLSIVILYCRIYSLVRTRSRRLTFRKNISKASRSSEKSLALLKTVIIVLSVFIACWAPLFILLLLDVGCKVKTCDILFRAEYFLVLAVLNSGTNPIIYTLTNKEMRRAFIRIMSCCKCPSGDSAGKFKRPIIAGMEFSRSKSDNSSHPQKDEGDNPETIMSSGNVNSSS
Description: (§1) Evaluation of In Vitro S1P1 Receptor Agonist Activity in Biological Body
(Method 1) Method for Evaluation on Receptor Agonist Action by GTP[γ-^35S] Binding Assay Using Membrane of Human S1P1 Expressing Cell
The in vitro S1P1 agonist action of the compound of the present invention was evaluated by the increase in the functional binding activity of GTP[γ-^35S] to G-protein using the membrane of a human S1P1 expressing cell. A cDNA encoding a human S1P1 was cloned from a human colorectal cDNA library and introduced to an expression vector pcDNA3.1 to construct a S1P1-pcDNA3.1. Then, by Lipofectamine 2000 (GIBCO), the S1P1-pcDNA3.1 was transfected into a CHO cell, and cultured in a Ham's F-12 culture medium containing 10% fetal bovine serum, 100 U/mL penicillin, 100 μg/mL streptomycin, and 1 mg/mL G418 disulfate, to obtain a stable, G418-resistant strain. The cultured human S1P1 expressing cells were isolated in a 1 mM EDTA.2Na-containing PBS, and disrupted under ice-cooling by a homogenizer made of glass in a 1 mM Tris HCl (pH 7.4) buffer solution containing 0.1 mM EDTA and a protein inhibitor. It was centrifuged at […], and a supernatant was further centrifuged at 4° C. for 60 min at 100,000×g, and suspended in a 10 mM Tris HCl (pH 7.4) buffer solution containing 1 mM EDTA to purify the membrane. The obtained membrane (0.13 mg/mL) and […] GTP[γ-^35S] […] The filter plate was dried at 50° C. for 60 min, and Microscinti-o (Packard) was added thereto for measurement by a liquids scintillation counter for a microplate (Packard, TOP count). For evaluation of the human S1P1 agonist action of the compound of the present invention and the comparative compound, the percentages with the rate of a maximum reaction to make the GTP[γ-^35S] bonds saturated in the presence of the compound being set at 100%, and the rate of the reaction of the GTP[γ-^35S] bonds in the absence of the compound being set at 0% were used, a non-linear regression curve was plotted, and a concentration to cause an agonist action operating 50% of the maximum reaction was defined as an EC50 value (nM).

[2] = system: peripheral blood lymphocytes; test: Reduction of number of peripheral blood lymphocytes in rat (Test Example 2); format: in vivo; settings: Lymphocyte, male Lewis rats, oral
Description: Evaluation of Reduction of Number of Peripheral Blood Lymphocytes in Rat
The action on the peripheral blood lymphocytes were evaluated using rats. 6- to 10-week-old male Lewis rats (Japan Charles River Laboratories Japan, Inc.) were randomly divided into groups (n=3), and the compound of the present invention was suspended in 0.5% methyl cellulose-containing distilled water, and orally administered with a sonde. At 4 hours or 24 hours after administration, 0.2 ml of blood was collected from the ocular fundus under ether anesthesia. To the blood sample were immediately added EDTA.4K and heparin to prevent clotting, and the number of the lymphocytes in blood was measured with an automatic hematocyte analyzer (Sysmex Corp.; XT-2000i). For the reduction of the number of the lymphocytes in peripheral blood by the compound of the present invention, the percentage with the number of the lymphocytes in groups administered with 0.5% methyl cellulose-containing distilled water being set at 100%, as performed at the same time, were used, and the dose to cause 50% reduction of the number of the lymphocytes in the peripheral blood by administration of the compound of the present invention was defined as an ED50 value (mg/kg).

human S1P1 [3] = target: T1, human S1P1; test: Ca2+ influx assay using human S1P1 expressing cell (Test Example 1, Method 2); format: cell-based; settings: method 2, Ca2+ influx, human S1P1 expressing CHO cell (values with *); read-out: A: EC50, in vitro S1P1 agonist action (value with *)
Description: as §1
(Method 2) Method for Evaluation of Receptor Agonist Action by Ca^2+ Influx Assay Using Human S1P1 Expressing Cell
The in vitro S1P1 agonist action of the compound of the present invention was evaluated by the increase in the Ca^2+ concentration in a human S1P1 expressing cell. A cDNA encoding a human S1P1 was cloned from a human colorectal cDNA library and introduced to an expression vector pcDNA3.1 to construct a S1P1-pcDNA3.1. Then, by Lipofectamine 2000 (GIBCO), the S1P1-pcDNA3.1 was transfected into a CHO cell, and cultured in a Ham's F-12 culture medium containing 10% fetal bovine serum, 100 U/mL penicillin, 100 μg/mL streptomycin, and 1 mg/mL G418 disulfate, to obtain a stable, G418-resistant strain. The cultured human S1P1 expressing cells were isolated in a 1 mM EDTA.2Na-containing PBS and suspended in a Ham's F-12 culture medium containing 10% fetal bovine serum, 100 U/mL penicillin, and 100 μg/mL streptomycin. This cell suspension was dispensed to a 96-well plate at 50000 cells/well, and cultured at a CO2 incubator (5% CO2, 37° C.) overnight. The culture medium was replaced with a calcium-sensitive fluorescent reagent (FLIPR (registered trademark) calcium 3 assay kit, molecular device)-containing loading buffer (Hank's balance salt solution, 20 mM HEPES, 2.5 mM probenecid) and left stand at a CO2 incubator (5% CO2, 37° C.) for 1 hour. The plate was set at a Functional Drug Screening System FDSS6000 (Hamamatsu Photonics K. K.), and persistently measured 124 times every 1.02 second at an excitation wavelength of 480 nm. The test compound (final concentration 10^−12 to 10^−5 M) was added at the same time as the 12th measurement, and the change in the Ca^2+ concentration in cells was evaluated by the change in the fluorescent strength. For evaluation of the human S1P1 agonist action of the compound of the present invention and the comparative compound, the percentages with the rate of a maximum reaction to make the increase in the Ca^2+ concentration in cells saturated after the addition of the compound being set at 100% and the rate of the increase in the Ca^2+ concentration in cells by the addition of a vehicle alone being set at 0% were used, a non-linear regression curve was plotted, and a concentration to cause an agonist action operating 50% of the maximum reaction was defined as an EC50 value (nM).

[4] = 4 hours after administration, read-out: B: ED50 4 h, reduction of number of lymphocytes in peripheral blood
[5] = 24 hours after administration, read-out: B: ED50 24 h, reduction of number of lymphocytes in peripheral blood

SMILES	EC50 (human S1P1 [1])	EC50 (human S1P1 [3])	ED50 [2, 4]	ED50 [2, 5]
O=C(O)C1CN(CC2=C(Cl)c3ccc(OCc4ccc(C(F)(F)F)cc4C(F)(F)F)cc3OC2)C1 [Ex 25]	1.7 nM		0.013 mg/kg	
Cl.O=C(O)C1CCN(CC2=Cc3c(F)cc(OCc4ccc(C(F)(F)F)cc4C(F)(F)F)cc3OC2)C1 (stereo not shown) [Ex 45]	1.5 nM		0.1 mg/kg	
CCc1sc(COc2cc(F)c3c(c2)OCC(CN2CCC(C(=O)O)C2)=C3)cc1-c1ccccc1 (stereo not shown) [Ex 56]	2.3 nM		0.067 mg/kg	
CS(=O)(=O)NC(=O)C1CCN(CC2=Cc3c(F)cc(OCc4ccc(C(F)(F)F)cc4C(F)(F)F)cc3OC2)C1.Cl (stereo not shown) [Ex 1, 1-[(7-{[2,4-bis(trifluoromethyl)benzyl]oxy}-5-fluoro-2H-chromen-3-yl)methyl]-N-(methylsulfonyl)pyrrolidine-3-carboxamide hydrochloride]	1.7 nM		0.016 mg/kg	
CC1CN(CC2=Cc3c(F)cc(OCc4cc(-c5ccccc5)c(C(F)(F)F)s4)cc3OC2)CC1C(=O)O (stereo not shown) [Ex 69]	6.3 nM		0.087 mg/kg	
Cl.O=C(O)C1=CCCN(CC2=Cc3c(F)cc(OCc4ccc(OC(CF)CF)c(Cl)c4)cc3OC2)C1 [Ex 143]			0.32 mg/kg	
O=C(O)C1CN(CC2=Cc3ccc(OCc4cc(-c5ccccc5)c(Br)s4)cc3OC2)C1 [Ex 43]	6.2 nM		0.26 mg/kg	
O=C(O)C1(F)CCN(CC2=Cc3c(F)cc(OCc4cc(-c5ccccc5)c(C(F)(F)F)s4)cc3OC2)C1 (stereo not shown) [Ex 74]	5.6 nM		0.59 mg/kg	
CC1(C(=O)O)CCN(CC2=Cc3c(F)cc(OCc4cc(-c5ccccc5)c(C(F)(F)F)s4)cc3OC2)C1 (stereo not shown) [Ex 66]	10 nM		0.21 mg/kg	
CCCc1ccc(COc2ccc3c(c2)OCC(CN2CCC(C(=O)O)C2)=C3)c(OC)c1 (stereo not shown) [Ex 31]	1.2 nM		0.065 mg/kg	
Cl.O=C(O)C1CCN(CC2=Cc3ccc(OCc4ccc(C(F)(F)F)cc4C(F)(F)F)cc3OC2)C1 (stereo not shown) [Ex 44]	3.7 nM		0.37 mg/kg	
O=C(O)[C@H]1CCN(CC2=Cc3c(F)cc(OCc4ccc(-n5cccc5)c(C(F)(F)F)c4)cc3OC2)C1 [Ex 109]	5.4 nM		0.26 mg/kg	
O=C(O)C1CCN(CC2=Cc3c(F)cc(OCc4ccc(-c5ccccc5)c(C(F)(F)F)c4)cc3OC2)C1 (stereo not shown) [Ex 62]	2.5 nM		0.21 mg/kg	
CC1(C(=O)O)CN(CC2=Cc3c(F)cc(OCc4cc(-c5ccccc5)c(C(F)(F)F)s4)cc3OC2)C1 [Ex 81]	4.6 nM		0.25 mg/kg	
O=C(O)C1CN(CC2=Cc3c(F)cc(OCc4ccc(C(F)(F)F)cc4C(F)(F)F)cc3OC2)C1 [Ex 34]	2 nM		0.01 mg/kg	
O=C(O)C1=CCCN(CC2=Cc3c(F)cc(OCc4ccc(C(F)(F)F)cc4C(F)(F)F)cc3OC2)C1 [Ex 85]	11 nM		0.19 mg/kg	
CC1(C(=O)O)CN(CC2=Cc3ccc(OCc4ccc(-n5cccc5)c(C(F)(F)F)c4)cc3OC2)C1 [Ex 116]	8.5 nM		0.1 mg/kg	
C[C@H](Oc1ccc(COc2cc(F)c3c(c2)OCC(CN2CCC=C(C(=O)O)C2)=C3)cc1Cl)C(F)(F)F.Cl [Ex 144]			0.16 mg/kg	
CC1(C(=O)O)CCN(CC2=Cc3c(F)cc(OCc4ccc(-n5cccc5)c(C(F)(F)F)c4)cc3OC2)C1 (stereo not shown) [Ex 89]	6.1 nM		0.16 mg/kg	

Continued, in another order:

EC50 (human S1P1 [1])	EC50 (human S1P1 [3])	SMILES	ED50 [2, 4]	ED50 [2, 5]
	7.8 nM	Cl.O=C(O)C1=CCCN(CC2=Cc3ccc(OCc4ccc(C5CCCC5)c(C(F)(F)F)c4)cc3OC2)C1 [Ex 216]		0.25 mg/kg
9.4 nM		Cc1c(OCc2ccc(C(F)(F)F)cc2C(F)(F)F)ccc2c1OCC(CN1CCC(C(=O)O)C1)=C2.Cl (stereo not shown) [Ex 137]	0.11 mg/kg	
	16 nM	C[C@H](Oc1ccc(COc2ccc3c(c2)OCC(CN2CCC[C@@H](C(=O)O)C2)=C3)cc1C(F)(F)F)C(F)(F)F.Cl [Ex 156, (3R)-1-[(7-{[3-(trifluoromethyl)-4-{[(2S)-1,1,1-trifluoropropan-2-yl]oxy}benzyl]oxy}-2H-chromen-3-yl)methyl]piperidine-3-carboxylic acid hydrochloride]		0.086 mg/kg
	32 nM	Cl.O=C(O)[C@H]1CCCN(CC2=Cc3c(F)cc(OCc4ccc(OCC(F)(F)F)c(C(F)(F)F)c4)cc3OC2)C1 [Ex 236]		0.1 mg/kg
	6.3 nM	CS(=O)(=O)NC(=O)[C@@H]1CCCN(CC2=Cc3c(F)cc(OCc4ccc(OC(CF)CF)c(C(F)(F)F)c4)cc3OC2)C1.Cl [Ex 152]		0.28 mg/kg
	5.5 nM	C[C@H](Oc1ncc(COc2ccc3c(c2)OCC(CN2CCC=C(C(=O)O)C2)=C3)cc1Cl)C(F)(F)F.Cl [Ex 183]		0.21 mg/kg
	1.1 nM	CC(C)Oc1ccc(COc2ccc3c(c2)OCC(CN2CCC=C(C(=O)O)C2)=C3)cc1Cl.Cl [Ex 151]		0.35 mg/kg
	1.1 nM	Cl.O=C(O)[C@@H]1CCCN(CC2=Cc3c(F)cc(OCc4ccc(OC(CF)CF)c(Cl)c4)cc3OC2)C1 [Ex 223]		0.32 mg/kg
	0.68 nM	Cl.O=C(O)C1=CCN(CC2=Cc3ccc(OCc4ccc(OC(CF)CF)c(Cl)c4)cc3OC2)CC1 [Ex 181]		0.29 mg/kg
	2.2 nM	Cl.O=C(O)[C@@H]1CCCN(CC2=Cc3ccc(OCc4ccc(OCC(F)(F)F)c(C(F)(F)F)c4)cc3OC2)C1 [Ex 160]		0.26 mg/kg
8.7 nM		C[C@H](Oc1ccc(COc2ccc3c(c2)OCC(CN2CCC=C(C(=O)O)C2)=C3)cc1Cl)C(F)(F)F.Cl [Ex 149]		0.12 mg/kg
22 nM		Cl.O=C(O)C1CN(CC2=Cc3ccc(C#CCCc4ccccc4)cc3OC2)C1 [Ex 132]	0.16 mg/kg	
5.9 nM		C[C@H](Oc1ccc(COc2cc(F)c3c(c2)OCC(CN2CCC=C(C(=O)O)C2)=C3)cc1C(F)(F)F)C(F)(F)F.Cl [Ex 141]	0.099 mg/kg	
55 nM		CC(C)Oc1ccc(COc2ccc3c(c2)OCC(CN2CCC=C(C(=O)O)C2)=C3)cc1C(F)(F)F.Cl [Ex 178]		0.12 mg/kg
